Measurements reported in patent US20180140578A1, “METHODS AND COMPOSITIONS FOR THE DIAGNOSIS AND SELECTIVE TREATMENT OF CANCER” (Board of Regents of the University of Texas System, priority 2016, published 2018).

Assays:
[1] = test system: RBM39 in DCAF15−/− H1155 cells; assay: RBM39 degradation in DCAF15−/− cells (western blotting); assay type: cell-based, human
Protocol: (§1) Proteins were resolved on SDS-PAGE and transferred to 0.5 μm nitrocellulose membranes. Membranes were blocked in 5% milk TBST for 30 min, and then anti-RBM39 antibodies (HPA001591, Sigma-Aldrich) were added in 5% milk (1:5000) and incubated on a shaker overnight at 4° C. After three 5 min washes with TBST, membranes were incubated with HRP-conjugated goat anti-rabbit secondary antibody (Bio-Rad) for 2 hr at room temperature. After three 5 min washes with TBST, membranes were developed with ECL (enhanced chemiluminescence) substrates.
Two independent guide RNAs targeting DDB1, DDA1, DCAF15 were cloned into PX459. 0.2 million H1155 RBM39-AcGFP cells were transfected with PX459 sgRNA constructs and selected with 2 μg/ml puromycin to enrich for transfected cells. […] Cells were then trypsinized and the expression of RBM39-AGFP was quantified with flow cytometry. H1155 cells transfected with DCAF15 guide RNA were sparsely plated on 10 cm^2 plates and clones were isolated. Genomic DNA sequence flanking the cut site were amplified and sequenced to identify DCAF15−/− clones.

[2] = biological target: T1, RBM39-3xFLAG G268V with CUL4-DCAF15 complex (Homo sapiens, UniProt Q14498+Q66K64, G268V); assay: In vitro formation of complex in lysates, G268V; assay type: binding; conditions: in the presence of 10 μM of indisulam
T1 construct: lysate derived from parental cells, RBM39-3xFLAG cells, or RBM39 G268V-3xFLAG cells; endogenous in cells; host or cells: HCT-116 RBM39 G268V-3xFLAG cells (treated cells in A91; lysates in A95)
Protocol: First, we reconstituted formation of the RBM39-CUL4-DCAF15 complex in vitro (FIG. 4, panel A).
Anti-Flag M2 antibody (Sigma-Aldrich) was coupled to Dynabeads M-270 epoxy beads (Life Technologies) at the ratio of 10 μg of antibody/mg beads. […] Frozen cells were then pulverized in the a cryomill (Retsch) with one 25 mm steel ball and five cycles of three min at 25 Hz with intermittent cooling in liquid nitrogen. […] The lysates were centrifuged at 8000 g for 5 min at 4° C. 12 mg of conjugated Anti-Flag magnetic beads were mixed with clarified lysates for 5 min at 4° C. on a rotating platform, followed by three washes with IP buffer. Bound proteins were eluted with 1 mg/ml 3xFLAG peptide, followed by SDS-PAGE on a 10% Bis Tris gel. After brief electrophoresis, bands containing all the proteins were cut with clean blades. For western blotting of co-immunoprecipitated proteins, anti-DDA1 (ProteinTech, 14995-1-AP, 1:1000), anti-DDB1 (Abcam, ab109027, 1;10000), anti-CUL4A (Cell Signaling, 2699, 1:1000), anti-CUL4B (ProteinTech, 12916-1-AP, 1:1000) were used.

[3] = biological target: T2, RBM39 G268V-3xFLAG (Homo sapiens, UniProt Q66K64); assay: In vivo polyubiquitination of RBM39 G268V; assay type: cell-based; conditions: following indisulam treatment
T2 construct: expressed in transfected cells; host or cells: 293T
Protocol: cDNAs encoding RBM39-3xFLAG, RBM39 G268V-3xFLAG, and DCAF15-V5 were cloned into the pCDNA3.1+vector. pCMV 8XHis Ub was a gift from William Kaelin (Dana Farber Cancer Institute). 0.4 million 293T cells were seeded per well on 6-well plates and allowed to attach overnight. 250 ng of pCMV 8XHis Ub, 500 ng of pCDNA3-DCAF15-V5, 10 ng of either pCDNA3-RBM39-3xFLAG or pCDNA3-RBM39 G268V-3xFLAG were transfected. […] Cells were lifted from the plates by pipetting, pelleted by centrifugation, and washed once with PBS. Purification of His-Ub tagged proteins was performed as described (5).

[4] = biological target: T3, RBM39 (Homo sapiens, UniProt Q14498+Q66K64); assay: RBM39 degradation in cells (western blotting); assay type: cell-based; conditions: HCT-116 cells; dose dependent, evident as early as two hours after treatment
T3 construct: triggers the degradation of RBM39 in parental HCT-116 cells; endogenous in cells; host or cells: HCT-116
Protocol: as §1

[5] = test system: pre-mRNA splicing in HCT-116 cells harboring RBM39 G268V; assay: RNA-seq analysis of splicing changes, RBM39 G268V; assay type: cell-based, human; conditions: 2 μM indisulam
Text: RNAs were extracted using Quick-RNA MiniPrep kit (Zymo Research). After cleaning up genomic DNA contaminant with Turbo DNase (Life Technologies) and rRNA depletion, strand-specific cDNA libraries were generated using the TruSeq Stranded mRNA Sample Prep Kit (IIlumina) and were subjected to high throughput sequencing using
HiSeq2500 platform (Illumina) with 100-bp single-end reads. NGS QC Toolkit (v2.3.1) (49) was used to check the sequencing quality, and high-quality reads were aligned by TopHat (v2.0.8) (50) to human reference genome (hg19) along with the gene annotation data downloaded from Illumina's iGenomes (support.illumina.com/sequencing/sequencing_software/igenome.ilmn). The insert-size metrics required in TopHat execution and the correctness of strand specificity were estimated by mapping reads to human transcript sequences using Bowtie (v2.1.0) (51) and Picard-tools (v1.99) (picard.sourceforge.net). The htseq-count script distributed with the HTSeq Python package (0.6.1) (pypi.python.org/pypi/HTSeq) was employed for counting reads in genes considering the coding strands. Source data for RNA sequencing data is available under NCBI SRA accession SRP096666.
For the stringent detection of differential skipped exons and retained introns, a custom program called SpliceFisher was developed and it is downloadable at github.com/jiwoongbio/SpliceFisher. […]

[6] = test system: non-small cell lung cancer cell lines; assay: IC50 assay, U2AF1 S34F vs wild type NSCLC cell lines; assay type: cell-based, human; conditions: four S34F vs sixty-six wild type lines; p=0.01
Protocol: Cells were plated at ˜15% confluence in a media comprising 5% concentration of fetal bovine serum supplemented with RPMI, which included 2 mM L-Glutamine in a 96 well dish. […] Following three days of incubation in a 5% CO2 incubator, the total ATP in each well was quantified using Cell Titer Glo (Promega). […] The solid lines represent the medians.

NS(=O)(=O)c1ccc(S(=O)(=O)Nc2cccc3c(Cl)c[nH]c23)cc1 [Indisulam, indisulam]
RBM39 degradation in response to indisulam [1]: failed to degrade RBM39
co-purification of RBM39-3xFLAG G268V with CUL4-DCAF15 complex [2]: did not co-purify
RBM39 G268V ubiquitination [3]: not ubiquitinated
amount of RBM39 protein [4]: reduced
exon skipping events ([5]; HCT-116 RBM39 G268V): 3
intron retention events ([5]; cells expressing the RBM39 G268V allele): no intron retention event
sensitivity of U2AF1 S34F vs U2AF1 wild type NSCLC cell lines [6]: more sensitive
